One experiment deals with T1, Human Calpain 1/NS1 (Homo sapiens, UniProt P07384).
T1 sequence (P07384 1-714): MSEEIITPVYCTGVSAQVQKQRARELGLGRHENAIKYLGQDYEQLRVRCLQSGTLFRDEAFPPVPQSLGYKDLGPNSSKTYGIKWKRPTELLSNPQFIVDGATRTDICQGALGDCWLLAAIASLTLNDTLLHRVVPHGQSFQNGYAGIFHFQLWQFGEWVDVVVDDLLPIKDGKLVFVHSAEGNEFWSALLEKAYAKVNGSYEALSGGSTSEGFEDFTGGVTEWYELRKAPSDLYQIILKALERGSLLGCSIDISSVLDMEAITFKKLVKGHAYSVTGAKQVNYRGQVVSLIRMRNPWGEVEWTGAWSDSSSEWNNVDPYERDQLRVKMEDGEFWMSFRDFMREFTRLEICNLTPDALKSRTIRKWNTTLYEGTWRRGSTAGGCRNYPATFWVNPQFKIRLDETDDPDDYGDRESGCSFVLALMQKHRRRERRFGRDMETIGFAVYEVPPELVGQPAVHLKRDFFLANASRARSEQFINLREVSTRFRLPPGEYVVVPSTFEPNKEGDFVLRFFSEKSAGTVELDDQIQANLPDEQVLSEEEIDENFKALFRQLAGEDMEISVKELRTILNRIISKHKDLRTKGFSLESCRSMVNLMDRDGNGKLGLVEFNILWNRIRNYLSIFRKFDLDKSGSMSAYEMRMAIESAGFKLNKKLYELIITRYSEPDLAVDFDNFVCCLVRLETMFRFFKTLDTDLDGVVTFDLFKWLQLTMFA
T1 sequence (P04632 1-268 partner): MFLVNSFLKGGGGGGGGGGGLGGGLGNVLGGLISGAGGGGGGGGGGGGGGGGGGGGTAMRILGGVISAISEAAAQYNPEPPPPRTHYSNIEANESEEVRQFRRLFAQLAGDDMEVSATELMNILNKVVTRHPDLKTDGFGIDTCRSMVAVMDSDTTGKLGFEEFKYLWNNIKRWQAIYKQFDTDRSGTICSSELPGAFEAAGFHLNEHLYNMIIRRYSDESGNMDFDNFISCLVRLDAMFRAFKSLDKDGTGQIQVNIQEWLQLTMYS
Description: Calpain inhibition continuous fluorescence (FRET) assay, Human Calpain 1/NS1. Type of experiment: biochemical. The settings on record: read-out: Human Calpain 1/NS1 IC50. The method in brief:
(§1)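 Continuous FRET read (ex 490/em 520 nm, 10 min) of calpain 1, 2 or 9 cleaving an internally quenched 5-FAM peptide, triggered by substrate with CaCl2 after enzyme–inhibitor incubation at ambient 25 °C, pH 7.5 Tris/NaCl/DTT buffer. IC50 from initial rates (1-5 min) via 4-parameter fit.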

The target of another experiment is T2, Human Calpain 2/NS1 (Homo sapiens, UniProt P17655).
T2 sequence (P17655 1-700): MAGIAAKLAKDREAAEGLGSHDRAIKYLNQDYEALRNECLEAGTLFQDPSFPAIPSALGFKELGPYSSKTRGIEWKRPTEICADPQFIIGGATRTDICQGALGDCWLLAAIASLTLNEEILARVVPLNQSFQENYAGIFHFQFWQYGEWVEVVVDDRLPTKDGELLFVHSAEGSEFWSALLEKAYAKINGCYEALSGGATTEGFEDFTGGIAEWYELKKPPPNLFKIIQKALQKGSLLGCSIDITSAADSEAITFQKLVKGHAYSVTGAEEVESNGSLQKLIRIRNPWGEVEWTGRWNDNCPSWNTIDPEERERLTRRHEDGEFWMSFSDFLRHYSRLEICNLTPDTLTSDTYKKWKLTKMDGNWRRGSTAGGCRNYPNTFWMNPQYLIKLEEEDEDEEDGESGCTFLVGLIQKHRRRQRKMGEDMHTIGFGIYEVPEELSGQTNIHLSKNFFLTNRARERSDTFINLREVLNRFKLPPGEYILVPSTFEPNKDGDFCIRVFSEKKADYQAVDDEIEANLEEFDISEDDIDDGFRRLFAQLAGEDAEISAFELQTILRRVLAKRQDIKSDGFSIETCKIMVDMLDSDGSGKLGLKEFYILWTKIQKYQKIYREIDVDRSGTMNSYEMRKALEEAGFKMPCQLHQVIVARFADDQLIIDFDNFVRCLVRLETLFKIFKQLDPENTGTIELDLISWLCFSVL
T2 sequence (P04632 1-268 partner): T1 sequence (P04632 1-268 partner)
Description: Calpain inhibition continuous fluorescence (FRET) assay, Human Calpain 2/NS1. Type of experiment: biochemical. The settings on record: read-out: Human Calpain 2/NS1 IC50. The method in brief: as §1

The target in a further experiment is T3, Human Calpain 9/NS1 (Homo sapiens, UniProt O14815).
T3 sequence (O14815 1-690): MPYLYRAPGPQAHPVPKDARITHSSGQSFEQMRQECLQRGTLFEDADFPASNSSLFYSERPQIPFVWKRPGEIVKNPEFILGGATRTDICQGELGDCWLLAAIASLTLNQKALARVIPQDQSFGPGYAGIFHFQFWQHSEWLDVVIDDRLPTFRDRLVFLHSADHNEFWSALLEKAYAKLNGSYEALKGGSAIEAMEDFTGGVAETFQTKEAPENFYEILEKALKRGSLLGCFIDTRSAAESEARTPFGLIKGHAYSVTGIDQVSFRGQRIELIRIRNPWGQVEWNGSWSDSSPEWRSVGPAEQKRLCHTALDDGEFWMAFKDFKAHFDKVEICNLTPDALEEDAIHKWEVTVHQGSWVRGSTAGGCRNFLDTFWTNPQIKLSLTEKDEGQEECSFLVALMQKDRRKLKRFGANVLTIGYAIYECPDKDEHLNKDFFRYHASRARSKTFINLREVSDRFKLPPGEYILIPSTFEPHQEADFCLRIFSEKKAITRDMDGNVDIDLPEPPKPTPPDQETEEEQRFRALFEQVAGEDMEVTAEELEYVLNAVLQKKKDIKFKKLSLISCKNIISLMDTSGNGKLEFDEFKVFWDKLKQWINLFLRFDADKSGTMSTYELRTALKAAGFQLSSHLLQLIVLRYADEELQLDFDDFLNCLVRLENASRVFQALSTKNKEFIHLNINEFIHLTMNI
T3 sequence (P04632 1-268 partner): T1 sequence (P04632 1-268 partner)
Put plainly: Calpain inhibition continuous fluorescence (FRET) assay, Human Calpain 9/NS1. The format is biochemical. The settings on record: read-out: Human Calpain 9/NS1 IC50. The essentials: as §1

Experiment [1] has as its system Calpain activity in SH-SY5Y cells (SBDP-150). Put plainly: SH-SY5Y Spectrin western blot assay (SBDP-150 breakdown product, A23187-induced). Type of experiment: cell-based. Conditions: Homo sapiens, SH-SY5Y cells, read-out: SH-SY5Y Spectrin IC50.
In experiment [2] the test system is Calpain activity in SH-SY5Y cells. Description: SH-SY5Y + AMC fluorescence assay (Suc-LLVY-AMC substrate). Type of experiment: cell-based. The settings on record: read-out: SH-SY5Y + AMC IC50.
[3] abbreviates: A23187-induced SBDP-150, western blot.
The mark [4] stands for this setting: Column D, A23187-induced SBDP-150.

Like-named read-outs stand apart in the source and are kept apart here.

`CC[C@@H](C)[C@H](NC(=O)c1oc(C)nc1-c1ccccc1)C(=O)C(N)=O` [Compound 387, N-((3S,4R)-1-amino-4-methyl-1,2-dioxohexan-3-yl)-2-methyl-4-phenyloxazole-5-carboxamide]: the IC50 was less than 3 µM at Human Calpain 1/NS1; less than 3 µM at Human Calpain 2/NS1; less than 3 µM at Human Calpain 9/NS1; greater than 25 µM in experiment [1] (setting [3]); greater than 25 µM in experiment [2].

Take `Cn1cc(C(=O)N[C@@H](Cc2ccc(F)cc2)C(=O)C(N)=O)c(-c2ccccc2)n1` [Compound 168, (S)—N-(4-amino-1-(4-fluorophenyl)-3,4-dioxobutan-2-yl)-1-methyl-3-phenyl-1H-pyrazole-4-carboxamide]: the IC50 at Human Calpain 1/NS1 (Column A) is less than 3 µM; at Human Calpain 2/NS1 (Column B) it was less than 3 µM; on Human Calpain 9/NS1 (Column C), less than 3 µM; in experiment [1] (setting [4]) it was 10 to 25 µM; in experiment [2] (Column E) it was less than 10 µM.

As for `Cc1cc(C(=O)N[C@@H](Cc2ccccc2)C(=O)CF)n(-c2cnccn2)n1` [Compound 477, (S)—N-(4-fluoro-3-oxo-1-phenylbutan-2-yl)-3-methyl-1-(pyrazin-2-yl)-1H-pyrazole-5-carboxamide], the IC50 at Human Calpain 1/NS1 is 3 to 10 µM; on Human Calpain 2/NS1, less than 3 µM; at Human Calpain 9/NS1, 3 to 10 µM; in experiment [1] (setting [3]) it was 10 to 25 µM; in experiment [2] it was greater than 25 µM.

Consider `C#CC[C@H](NC(=O)c1cn(C)nc1-c1ccccc1F)C(=O)C(N)=O` [Compound 574, (S)—N-(1-amino-1,2-dioxohex-5-yn-3-yl)-3-(2-fluorophenyl)-1-methyl-1H-pyrazole-4-carboxamide], for which the IC50 at Human Calpain 1/NS1 was less than 3 µM; at Human Calpain 2/NS1 it was less than 3 µM; on Human Calpain 9/NS1, less than 3 µM; in experiment [1] (setting [3]), greater than 25 µM; in experiment [2] it was greater than 25 µM.

Regarding `Cn1cc(C(=O)N[C@@H](Cc2ccccc2)C(=O)CF)c(-c2ccccc2)n1` [Compound 476, (S)—N-(4-fluoro-3-oxo-1-phenylbutan-2-yl)-1-methyl-3-phenyl-1H-pyrazole-4-carboxamide], the IC50 on Human Calpain 1/NS1 is less than 3 µM; on Human Calpain 2/NS1, less than 3 µM; at Human Calpain 9/NS1, less than 3 µM; in experiment [1] (setting [3]), 10 to 25 µM; in experiment [2] it was greater than 25 µM.

For the compound `NC(=O)C(=O)C(Cc1ccccc1)NC(=O)c1cn(C(F)F)nc1-c1cccc2ccccc12` (centres unmarked) [Compound 547, N-(4-amino-3,4-dioxo-1-phenylbutan-2-yl)-1-(difluoromethyl)-3-(naphthalen-1-yl)-1H-pyrazole-4-carboxamide], the IC50 at Human Calpain 1/NS1 is less than 3 µM; on Human Calpain 2/NS1 it was less than 3 µM; at Human Calpain 9/NS1 it was less than 3 µM; in experiment [1] (setting [3]), less than 10 µM; in experiment [2] it was less than 10 µM.

As for `Cc1cc(C(=O)N[C@@H](Cc2ccccc2)C(=O)C(N)=O)n(-c2cccc(COc3ccccc3)c2)n1` [Compound 231, (S)—N-(4-amino-3,4-dioxo-1-phenylbutan-2-yl)-3-methyl-1-(3-(phenoxymethyl)phenyl)-1H-pyrazole-5-carboxamide], the IC50 was less than 3 µM on Human Calpain 1/NS1 (Column A); less than 3 µM at Human Calpain 2/NS1 (Column B); less than 3 µM on Human Calpain 9/NS1 (Column C); greater than 25 µM in experiment [1] (setting [4]); greater than 25 µM in experiment [2] (Column E).

Take `O=CC(Cc1ccccc1)NC(=O)c1cnoc1-c1ccccc1` (centres unmarked) [Compound 397, N-(1-oxo-3-phenylpropan-2-yl)-5-phenylisoxazole-4-carboxamide]: the IC50 on Human Calpain 1/NS1 is less than 3 µM; on Human Calpain 2/NS1, less than 3 µM; at Human Calpain 9/NS1 it was less than 3 µM; in experiment [1] (setting [3]), less than 10 µM; in experiment [2] it was greater than 25 µM.

Consider `Cn1cc(C(=O)NC(Cc2ccccc2)C(=O)C(N)=O)c(-c2ccc(F)cc2)n1` (centres unmarked) [Compound 447, N-(4-amino-3,4-dioxo-1-phenylbutan-2-yl)-3-(4-fluorophenyl)-1-methyl-1H-pyrazole-4-carboxamide], for which the IC50 is less than 3 µM on Human Calpain 1/NS1; less than 3 µM on Human Calpain 2/NS1; less than 3 µM on Human Calpain 9/NS1; 10 to 25 µM in experiment [1] (setting [3]); 10 to 25 µM in experiment [2].

`Cn1cc(C(=O)N[C@@H](Cc2ccccc2)C(=O)C(N)=O)c(-c2cccc(C(F)(F)F)c2)n1` [Compound 183, (S)—N-(4-amino-3,4-dioxo-1-phenylbutan-2-yl)-1-methyl-3-(3-(trifluoromethyl)phenyl)-1H-pyrazole-4-carboxamide]: the IC50 on Human Calpain 1/NS1 (Column A) is less than 3 µM; on Human Calpain 2/NS1 (Column B), less than 3 µM; at Human Calpain 9/NS1 (Column C), less than 3 µM; in experiment [1] (setting [4]), less than 10 µM; in experiment [2] (Column E), 10 to 25 µM.

Take `CC(C)CC(NC(=O)c1nsnc1-c1ccccc1)C(=O)C(N)=O` (centres unmarked) [Compound 465, N-(1-amino-5-methyl-1,2-dioxohexan-3-yl)-4-phenyl-1,2,5-thiadiazole-3-carboxamide]: the IC50 was less than 3 µM at Human Calpain 1/NS1; less than 3 µM on Human Calpain 2/NS1; less than 3 µM on Human Calpain 9/NS1; less than 10 µM in experiment [1] (setting [3]); greater than 25 µM in experiment [2].

`Cn1ncc(C(=O)N[C@@H](Cc2ccccc2)C(=O)C(N)=O)c1-c1ccccc1` [Compound 45, (S)—N-(4-amino-3,4-dioxo-1-phenylbutan-2-yl)-1-methyl-5-phenyl-1H-pyrazole-4-carboxamide]: the IC50 at Human Calpain 1/NS1 (Column A) is less than 3 µM; on Human Calpain 2/NS1 (Column B) it was less than 3 µM; at Human Calpain 9/NS1 (Column C) it was less than 3 µM; in experiment [1] (setting [4]) it was greater than 25 µM; in experiment [2] (Column E), 10 to 25 µM.

As for `NC(=O)C(=O)C(Cc1ccccc1)NC(=O)C1CCCN1c1ccccc1` (centres unmarked) [compound 541], the IC50 at Human Calpain 1/NS1 is less than 3 µM; on Human Calpain 2/NS1, less than 3 µM; on Human Calpain 9/NS1, less than 3 µM; in experiment [1] (setting [3]) it was 10 to 25 µM; in experiment [2], greater than 25 µM.

The values are drawn from patent publication US11339130B1 (Blade Therapeutics, Inc., priority 2016, dated 2022).
